Test system: MV4-11 cells
Experiment: Inhibition of MV4-11 cell proliferation (CellTiterGlo, 72 h)
Assay type: cell-based
Conditions: Homo sapiens; 72 h growth inhibition
Method: To assess the cellular potency of the FLT3 inhibitors of Formula I′, FLT3 specific growth inhibition was measured in the leukemic cell line MV4-11 (ATCC Number: CRL-9591). […] MV4-11 cells cannot grow and survive without active FLT3ITD.
To measure proliferation inhibition by test compounds, the luciferase based CellTiterGlo reagent (Promega), which quantifies total cell number based on total cellular ATP concentration, was used. Cells are plated at 10,000 cells per well in 100 ul of in RPMI media containing penn/strep, 10% FBS and 1 ng/ml GM-CSF or 1 ng/ml IL-3 for MV4-11 and Baf3 cells respectively.
Compound dilutions or 0.1% DMSO (vehicle control) are added to cells and the cells are allowed to grow for 72 hours at standard cell growth conditions (37° C., 5% CO2). For activity measurements in MV4-11 cells grown in 50% plasma, cells were plated at 10,000 cells per well in a 1:1 mixture of growth media and human plasma (final volume of 100 μL). To measure total cell growth an equal volume of CellTiterGlo reagent was added to each well, according to the manufacturer's instructions, and luminescence was quantified. Total cell growth was quantified as the difference in luminescent counts (relative light units, RLU) of cell number at Day 0 compared to total cell number at Day 3 (72 hours of growth and/or compound treatment). One hundred percent inhibition of growth is defined as an RLU equivalent to the Day 0 reading. Zero percent inhibition was defined as the RLU signal for the DMSO vehicle control at Day 3 of growth. All data points are an average of triplicate samples. […] Inhibition and IC50 data analysis was done with GraphPad Prism using a non-linear regression fit with a multiparamater, sigmoidal dose-response (variable slope) equation.
MV4-11 cells express the FLT3 internal tandem duplication mutation, and thus are entirely dependent upon FLT3 activity for growth. […] In contrast, the Baf3 cell proliferation is driven by the cytokine IL-3 and thus are used as a non-specific toxicity control for test compounds.

Row | IC50 [nM] | Structure (SMILES)
1 | 2100 | COc1cc2ncc(C#N)c(N3CCC(OC(=O)Nc4ccc(C(C)C)cc4)CC3)c2cc1OC [Compound 42, (4-Isopropyl-phenyl)-carbamic acid 1-(3-cyano-6,7-dimethoxy-quinolin-4-yl)-piperidin-4-yl ester]
2 | > 5000 | COc1cc2ncnc(N3CCC(NC(=O)Nc4ccc(N5CCOCC5)cc4)C3)c2cc1OC (centres unmarked) [Compound 43, 1-[1-(6,7-Dimethoxy-quinazolin-4-yl)-pyrrolidin-3-yl]-3-(4-morpholin-4-yl-phenyl)-urea]
3 | 1700 | COc1cc2ncnc(N3CCC(NC(=O)Nc4ccc(C5CCCCC5)cc4)C3)c2cc1OC (centres unmarked) [Compound 50, 1-(4-Cyclohexyl-phenyl)-3-[1-(6,7-dimethoxy-quinazolin-4-yl)-pyrrolidin-3-yl]-urea]
4 | 1500 | COc1cc2ncnc(N3CCC(OC(=O)Nc4ccc(OC5CCCC5)cc4)C3)c2cc1OC (centres unmarked) [Compound 54, (4-Cyclopentyloxy-phenyl)-carbamic acid 1-(6,7-dimethoxy-quinazolin-4-yl)-pyrrolidin-3-yl ester]
5 | 1200 | COc1cc2ncnc(N3CCC(NC(=O)Nc4ccc(Oc5ccccc5)cc4)C3)c2cc1OC (centres unmarked) [Compound 51, 1-[1-(6,7-Dimethoxy-quinazolin-4-yl)-pyrrolidin-3-yl]-3-(4-phenoxy-phenyl)-urea]
6 | > 10000 | CC(C)Oc1ccc(NC(=O)OC2CCN(c3ccnc4ccccc34)CC2)cc1 [Compound 41]
7 | 3900 | COc1cc2ncnc(N3CCC(NC(=O)Nc4ccc(N5CCCCC5)cc4)C3)c2cc1OC (centres unmarked) [Compound 47, 1-[1-(6,7-Dimethoxy-quinazolin-4-yl)-pyrrolidin-3-yl]-3-(4-piperidin-1-yl-phenyl)-urea]
8 | 1500 | COc1cc2ncnc(N3CCC(NC(=O)Nc4ccc(OC5CCCC5)cc4)C3)c2cc1OC (centres unmarked) [Compound 53, 1-(4-Cyclopentyloxy-phenyl)-3-[1-(6,7-dimethoxy-quinazolin-4-yl)-pyrrolidin-3-yl]-urea]
9 | 2500 | COc1cc2ncnc(N3CCC(NC(=O)Nc4ccc(Cl)cc4)C3)c2cc1OC (centres unmarked) [Compound 48, 1-(4-Chloro-phenyl)-3-[1-(6,7-dimethoxy-quinazolin-4-yl)-pyrrolidin-3-yl]-urea]
10 | 3500 | COc1cc2ncnc(N3CCC(NC(=O)Nc4ccc(N5CCCC5)nc4)C3)c2cc1OC (centres unmarked) [Compound 46, 1-[1-(6,7-Dimethoxy-quinazolin-4-yl)-pyrrolidin-3-yl]-3-(6-pyrrolidin-1-yl-pyridin-3-yl)-urea]
11 | 740 | COc1cc2ncnc(N3CCC(COC(=O)Nc4ccc(OC5CCCC5)cc4)CC3)c2cc1OC [Compound 56, (4-Cyclopentyloxy-phenyl)-carbamic acid 1-(6,7-dimethoxy-quinazolin-4-yl)-piperidin-4-ylmethyl ester]
12 | 9400 | COc1cc2ncnc(N3CCC(NC(=O)Nc4ccc(Cl)cc4)CC3)c2cc1OC [Compound 61, 1-(4-Chloro-phenyl)-3-[1-(6,7-dimethoxy-quinazolin-4-yl)-piperidin-4-yl]-urea]
13 | 1100 | COc1cc2ncnc(N3CCC(NC(=O)Nc4ccc(OC5CCCC5)nc4)C3)c2cc1OC (centres unmarked) [Compound 45, 1-(6-Cyclopentyloxy-pyridin-3-yl)-3-[1-(6,7-dimethoxy-quinazolin-4-yl)-pyrrolidin-3-yl]-urea]

Row | Structure (SMILES) | IC50 [nM]
14 | COc1cc2ncnc(N3CCC(NC(=O)Nc4ccc(OC5CCC5)nc4)C3)c2cc1OC (centres unmarked) [Compound 44, 1-(6-Cyclobutoxy-pyridin-3-yl)-3-[1-(6,7-dimethoxy-quinazolin-4-yl)-pyrrolidin-3-yl]-urea] | 1000
